Measured values as given in paper PMC6009889, “Kinetic and structural studies on the interactions of Torpedo californica acetylcholinesterase with two donepezil-like rigid analogues” (Journal of Enzyme Inhibition and Medicinal Chemistry, 2018).
Where two headings read alike, the source gives them in different places.

Assays:
mouse BACE-1 = settings: read-out: IC50 for mouse BACE-1 inhibition; cited from earlier work
[1] = biological target: Torpedo californica AChE (TcAChE) (Tetronarce californica, UniProt P04058); assay: biochemical; format: biochemical; settings: for Type of inhibition: Lineweaver-Burk, Dixon and Cornish-Bowden plots
Chain of Torpedo californica AChE (TcAChE) (P04058 22-586): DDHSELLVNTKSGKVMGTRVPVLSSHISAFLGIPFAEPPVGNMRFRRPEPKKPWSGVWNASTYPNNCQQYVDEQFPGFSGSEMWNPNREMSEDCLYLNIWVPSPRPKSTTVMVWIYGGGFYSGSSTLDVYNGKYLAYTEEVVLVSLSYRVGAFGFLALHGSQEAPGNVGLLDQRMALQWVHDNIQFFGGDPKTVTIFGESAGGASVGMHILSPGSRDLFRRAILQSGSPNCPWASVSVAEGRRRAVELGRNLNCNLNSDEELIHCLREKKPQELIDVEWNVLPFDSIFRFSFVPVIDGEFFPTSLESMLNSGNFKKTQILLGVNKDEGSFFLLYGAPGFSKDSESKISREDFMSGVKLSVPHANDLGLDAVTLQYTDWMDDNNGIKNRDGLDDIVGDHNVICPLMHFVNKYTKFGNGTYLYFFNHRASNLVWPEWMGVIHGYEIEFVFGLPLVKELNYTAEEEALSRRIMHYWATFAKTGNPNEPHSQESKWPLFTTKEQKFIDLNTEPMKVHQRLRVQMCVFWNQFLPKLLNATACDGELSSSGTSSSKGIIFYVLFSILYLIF
Procedure: The enzymatic activity of TcAChE was evaluated spectrophotometrically at room temperature by Ellman’s method[42] using a GE Ultrospec 7000 double beam spectrophotometer. […] The reaction was initiated by addition to the reaction mixture of the substrate acetylthiocoline (Sigma-Aldrich, Milan, Italy). To gain insights into the mechanism of action of 1, 2 and DNP, reciprocal plots of 1/velocity versus 1/[substrate] were constructed at substrate concentration in the 10–200 µM range. Data points are average values of three replicates. Three concentrations of inhibitors were selected for this study: 5, 10, and 20 nM. The plots were assessed by a weighted least-squares analysis that assumed the variance of the velocity (v) to be a constant percentage of v for the entire data set. Calculation of the inhibitor constant (Ki) value was carried out by re-plotting slopes of lines from the Lineweaver–Burk plot versus the inhibitor concentration and Ki was determined as the intersect on the negative x-axis. The apparent Ki’ (dissociation constant for the enzyme–substrate–inhibitor complex) value was determined by plotting the apparent 1/vmax versus inhibitor concentration. Data analyzes were performed with Graph 4.4.2.

## COc1cc2c(cc1OC)C(=O)/C(=C/C1CCN(Cc3ccccc3)CC1)C2 [compound 1]
Mouse BACE-1
  IC50: 697 nM
[1]
  Ki: 11.1 ± 2.88 nM
  Type of inhibition: mixed-type inhibition

## COc1ccc2c(c1)C/C(=C\C1CCN(Cc3ccccc3)CC1)C2=O [compound 2]
Mouse BACE-1
  IC50: 333 nM
[1]
  Type of inhibition: mixed-type inhibition
[1]; acetylthiocholine 10–200 µM, inhibitor 5, 10, 20 nM, K-phosphate buffer pH 7.0, room temperature, read-out: Ki (dissociation constant for free enzyme)
  Ki: 29.9 ± 1.12 nM
